# Test system: human airway epithelial cells
# Assay: CBF and MCT speed of HAE cells cultured in the MCTD after stimulation by ATPγS
# Format: cell-based
# Conditions: HAE cell cultures with circular MCT in the MCTD; 1 mM ATPγS in buffer added to apical surface; average of four experiments/donors; p<0.05 vs carrier and baseline
# Excerpt: An MCT culturing device (MCTD) and the MCT system (MCTS) generally configured as shown for the MCTD 100 and MCTS 10 were constructed. The MCTD was constructed on a 30 mm Millicell™ cell culture insert (Millipore, Ireland). The base of an approximately 15 mm diameter central cylinder of cell culture compatible material (nylon, polystyrene) was attached to the center interior of the cell culture insert with an inert, silicone-based sealer. The approximately 4.0 mm outer ring or track defined in the bottom of the cell culture insert between the central cylinder and the cell culture insert was then coated with human Type IV collagen at ˜90 μg/cm^2, air-dried, and UV-irradiated. […] Cultures were examined at the time of media change and the extent of ciliation and the development of continuous, circular transport was recorded. […] High speed videos were recorded from four equally spaced positions around the MCTD. Ciliary beat frequency (CBF) was determined by whole field analysis using the SAVA™ software program (Sisson, Stoner et al. 2003), and the speed and direction of particle transport were determined by tracking particles of debris in the mucus. Alternatively, a small volume of fluid (0.5 μl) containing fluorescent beads was added to the mucus layer, and after equilibration (5-10 minutes), the motion of the fluorescent beads was recorded and analyzed using fluorescent microscopy. […]
smiles,measurement,value
Nc1ncnc2c1ncn2[C@@H]1O[C@H](COP(=O)(O)OP(=O)(O)OP(O)(O)=S)[C@@H](O)[C@H]1O [ATPγS],MCT speed (mucociliary transport),significantly increased
same,ciliary beat frequency (CBF),significantly increased
